# US20090131258A1, “HERBICIDE COMPOSITIONS FOR UPLAND FARMING AND CONTROL METHOD” (priority 2004, published 2009)
# Read-outs that look alike come from different tables or passages of the source.
# Legend:
# Assay type in all cases: in vivo
# [1] = test system: Alopecurus myosuroides Huds.; test: Foliar application test on Alopecurus myosuroides Huds. in upland field condition; conditions: 672 h, fresh weight day 28, read-out: Inhibitory rate (%); for inhibition at 1000 g/ha: dose 1000 g a.i./ha; for inhibition at 2000 g/ha: dose 2000 g a.i./ha
# Description: Next, Test Examples of the herbicide compositions according to the invention will be presented. In the following Test Examples, the ingredient (A) was mixed with the ingredient (B), (C), (D), (E) or (F) in practice. As a result, an effect exceeding the effect expected from the effects achieved by using the individual ingredients solely (i.e., a synergistic effect) was observed. The term “synergistic effect” means the effect achieved in the case where the effect achieved by two or more chemicals acting simultaneously exceeds the additive effect expected from the activities of the respective chemicals used solely. The activity expected by using a specific combination of two herbicides (hereinafter called “expectation”) can be calculated in accordance with the following Colby's formula (refer to Colby, S. R., Weeds, 15, p. 20 to 22 (1967)).
# (§1) E=X+Y−(X×Y/100) Numerical formula 1
# (§2) (In the above formula, E represents an inhibitory rate expected in the case of applying a mixture of p kg/ha of a herbicide A and q kg/ha of another herbicide B. X represents the inhibitory rate achieved by the application of p kg/ha of the herbicide A. Y represents the inhibitory rate achieved by the application of q kg/ha of the herbicide B.)
# (§3) When the effect achieved by the mix application in practice exceeds the value E, the combination can be regarded as achieving a synergistic effect. Inhibitory rate was determined in accordance with the following numerical formula 2.
# (§4) Inhibitory rate(%)=(1−fresh weight in treated lot/fresh weight in untreated lot)×100 Numerical formula 2
# A resin vat having an area of 200 cm^2 was filled with upland soil that was diluvial clay loam soil. After fertilization, Alopecurus myosuroides Huds. was sowed and the seeds were evenly covered with the soil. Then, the plants were grown under controlled conditions in a greenhouse. When the test weeds grew to the 2.0 to 2.5 leaf stage, each herbicide having been diluted at a definite concentration and mixed was uniformly sprayed to the foliage with a small-sized high pressure sprayer. The preparation containing the ingredient (A) alone was prepared in accordance with Formulation Example 1 but adding diatomaceous earth to compensate for the decrease in the ingredient (B), (C) or (F). As the preparations respectively containing the ingredients (B) and (C) alone, marketed flowables were employed. As the preparation containing the ingredient (F) alone, a marketed emulsifiable concentrate was employed. The mixed preparations were prepared by mixing the same. Then, the plants were grown under controlled conditions in the greenhouse. On the day 28 after the application, the fresh weight of the above-ground part of each weed was measured and the inhibitory rate (%) was determined in accordance with Numerical Formula 2 and the expectation was calculated in accordance with Numerical Formula 1, Tables 2 and 3 show the results.
# [2] = test system: Stellaria media Villars; test: Foliar application test on Stellaria media Villars in upland field condition; conditions: day 28
# Description: (§5) Next, Test Examples of the herbicide compositions according to the invention will be presented. In the following Test Examples, the ingredient (A) was mixed with the ingredient (B), (C), (D), (E) or (F) in practice. […] The term “synergistic effect” means the effect achieved in the case where the effect achieved by two or more chemicals acting simultaneously exceeds the additive effect expected from the activities of the respective chemicals used solely.
# as §1, §2, §3, §4
# (§6) A resin vat having an area of 200 cm^2 was filled with upland soil that was diluvial clay loam soil. After fertilization, Stellaria media Villars and Matricaria inodora L. were sowed and the seeds were evenly covered with the soil. Then, the plants were grown under controlled conditions in a greenhouse. When the test weeds grew to the 2.0 to 2.5 leaf stage, each herbicide having been diluted at a definite concentration and mixed was uniformly sprayed to the foliage with a small-sized high pressure sprayer. […] As the preparation containing the ingredient (D) alone, marketed wettable granules were employed. As the preparation containing the ingredient (E) alone, a marketed flowable was employed. The mixed preparations were prepared by mixing the same. Then, the plants were grown under controlled conditions in the greenhouse.
# [3] = test system: Matricaria inodora L.; test: Foliar application test on Matricaria inodora L. in upland field condition; conditions: day 28
# Description: as §5, §1, §2, §3, §4, §6
# [4] = Table 4, single ingredient, dose 5 g a.i./ha
# [5] = Table 4, single ingredient, dose 10 g a.i./ha
# [6] = Table 5, single ingredient, dose 2 g a.i./ha
# [7] = Table 5, single ingredient, dose 4 g a.i./ha
smiles,measurement,setting,value
"CC(C)c1ccc(NC(=O)N(C)C)cc1 [(B), isoproturon]",inhibition at 1000 g/ha,"[1]; Table 2, single ingredient",69%
same,inhibition at 2000 g/ha,"[1]; Table 2, single ingredient",90%
"CCC(CC)Nc1c([N+](=O)[O-])cc(C)c(C)c1[N+](=O)[O-] [(C), pendimethalin]",inhibition at 1000 g/ha,"[1]; Table 2, single ingredient",16%
same,inhibition at 2000 g/ha,"[1]; Table 2, single ingredient",22%
"COC(=O)c1ccc(C(F)(F)F)nc1S(=O)(=O)[N-]C(=O)Nc1nc(OC)cc(OC)n1.[Na+] [(D), sodium salt of flupyrsulfuron-methyl]",Inhibitory rate (%),[2]; [4],77%
same,Inhibitory rate (%),[2]; [5],85%
same,Inhibitory rate (%),[3]; [4],46%
same,Inhibitory rate (%),[3]; [5],67%
"COc1ncc(F)c2nc(S(=O)(=O)Nc3c(F)cccc3F)nn12 [(E), florasulam]",Inhibitory rate (%),[2]; [6],75%
same,Inhibitory rate (%),[2]; [7],90%
same,Inhibitory rate (%),[3]; [6],70%
same,Inhibitory rate (%),[3]; [7],80%
"CCCN(CCC)c1c([N+](=O)[O-])cc(C(F)(F)F)cc1[N+](=O)[O-] [(F), trifluralin]",inhibition at 1000 g/ha,"[1]; Table 3, single ingredient",55%
same,inhibition at 2000 g/ha,"[1]; Table 3, single ingredient",85%
